Source: patent US10568866B1, “Composition and its use for increasing innate immune health” (priority 2018, dated 2020)

What was measured:
Format in all cases: cell-based
IL-6 = test: Pro-inflammatory IL-6 release by LPS stimulated RAW264.7 macrophages (ELISA); details: for comparative effectiveness in decreasing IL-6 secretion (in words): 5-20 μg/ml individually, 75 μg/ml mixture, LPS stimulated, FIG. 3
Protocol: The pro-inflammatory IL-6 release by RAW264.7 macrophages was assessed using the IL-6 Quantikine ELISA assay kit (R&D, Minneapolis, Minn.) according to the manufacturer's protocol. Briefly, 2×10^6 of cells were plated in 6-well plates and allowed to settle for 2-4 h, followed by incubation with different micronutrients and plant extracts (5-20 μg/ml) 24 h at 37° C. in 5% CO2 atmosphere. After the incubation period, cells were stimulated with LPS (10 ng/ml) for additional 24 h and all supernatants were collected and subjected to ELISA assay according to manufacturer's protocol. As a positive control, LPS-stimulated cells without treatment were used. All experiments were done in triplicate.
The effect of naturally-derived agents and their mixture on release of pro-inflammatory IL-6 by RAW264.7 macrophage cell line. Macrophages were pre-incubated with different micronutrients and plant extracts (5-20 μg/ml) individually and in a mixture followed by their stimulation with Lipopolysaccharide (LPS). Each column represents the mean±standard deviation (n=4).

RAW264.7 macrophages = test: In vitro phagocytic assay (nitroblue tetrazolium (NBT) reduction test), RAW264.7 macrophages; details: 5-20 μg/ml individually, 75 μg/ml mixture, 24 h, FIG. 1A
Protocol: RAW264.7 macrophages (5×10^6 cells/well of a 96-well plate) were cultured with different micronutrients and plant extracts (5-20 μg/ml) for 24 h at 37° C. Thereafter, 20 μl C. albicans or S. mutans (5×10^7 cells/ml in PBS) suspension, and 20 μl nitroblue tetrazolium (1.5 mg/ml of NBT in PBS) were added to each well. Wells that received PBS+DMSO were used as control. Next, cells were incubated for 3 h at 37° C., the supernatant was removed, and the adherent macrophages were rinsed with RPMI 1640. The cells were air dried before 80 μl of 2M KOH and 100 μl DMSO were added to each well. The absorbance was measured at 570 nm using the microplate reader. Percentage of NBT reduction (reflecting phagocytic activity) was calculated as following equation: Phagocytic Index=(ODsample−ODcontrol)/ODcontrol.
The assay used nitroblue tetrazolium (NBT) reduction test after treatment with different individual micronutrients and plant extracts (5-20 μg/ml) and their combination for 24 h at 37° C. PI and phagocytosis was tested using C. albicans and S. mutants. Values shown are mean±standard deviation (n=4).

YAC-1 cells = test: Cytotoxicity assay of natural killer (NK) cells toward target YAC-1 cells (MTT); details: individual compounds 5-20 μg/ml, 24 h, FIG. 2
Protocol: Cytotoxicity Assay of Natural Killer (NK) Cells were performed using splenic natural killer (as the effector cells) activity assay was carried out according as described by Yi et al. Carbohydr. Polym. 2012, 87:636-643. The splenocytes/splenic NK cells were plated into 96-well plates at a density of 1×10^7 cells/ml per well in a 50 μl volume, and stimulated with different micronutrients and plant extracts (5-20 μg/ml) for 24 h at 37° C. Then, YAC-1 cells (1×10^6 cells/ml) were added into all experimental wells (group) and complete medium only was placed in the other wells as the effector control. At the same time, complete medium (100 μl), containing only YAC-1 cells (1×10^6 cells/ml), was added into empty wells as the target control. […] The absorbance was measured at 570 nm using a microplate reader. Cytotoxicity of NK cell was expressed as Cytotoxic Index (percent lysis of target cells): CI=[ODT−(ODexp.−ODE)]/ODT×100], where ODT represents OD value of the target control, whereas ODexp. and ODE represent OD value of the experimental group and effector control, respectively.
Cytotoxicity of NK cells toward target YAC-1 cells in the presence of different micronutrients and plant extracts (5-20 μg/ml) used individually and in a combination for 24 h at 37° C. Cytotoxicity of NK cells was assessed by the MTT assay and expressed as the mean±standard deviation (n=4).

## O=C(O)CCCCC1CCSS1 (stereo not drawn) [Alpha lipoic acid]
IL-6
  comparative effectiveness in decreasing IL-6 secretion (in words): best natural compounds

## O=C1O[C@H]([C@@H](O)CO)C(O)=C1O [Vitamin C]
RAW264.7 macrophages
  comparative effectiveness in stimulating phagocytic activity of RAW264.7 macrophages (in words): most effective individual agents
IL-6
  comparative effectiveness in decreasing IL-6 secretion (in words): best natural compounds

## Fucoidan
YAC-1 cells
  comparative effectiveness on NK cell cytotoxicity (in words): two most effective individual compounds

## Lipopolysaccharide [LPS]
IL-6; LPS 10 ng/ml, 24 h, no treatment (positive control)
  stimulation of IL-6 secretion by exposure of RAW264.7 macrophages to LPS: over 300%
